Assay results from PubChem BioAssay AID248 (DTP/NCI, 2004).
Several values for one entry are separate records, joined by “and”; a condition that tells them apart may be missing. Equal entries are not always repeated. Toxic doses and inconclusive results are not listed.

Test system: L1210 leukemia ip in BDF1 mice, survival T/C
Test: NCI In Vivo Anticancer Drug Screen. Data for tumor model L1210 Leukemia (intraperitoneal) in B6D2F1 (BDF1) mice
Conditions: endpoint: mean survival time, higher = longer survival
Outline: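 Tumor was transplanted into mice, which were then dosed with test compound or vehicle alone. Survival was recorded for each group, and the treated figure was expressed relative to the control figure.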

[1] = dose: 100.0 mg/kg/injection, schedule: Q01DX001 (ip), vehicle: saline
[2] = dose: 100.0 mg/kg/injection, schedule: Q04DX003 (ip), vehicle: acetone
[3] = dose: 200.0 mg/kg/injection, schedule: Q01DX001 (ip), vehicle: saline
[4] = dose: 100.0 mg/kg/injection, schedule: Q01DX001 (ip), vehicle: carboxymethylcellulose (CMC)
[5] = dose: 100.0 mg/kg/injection, schedule: Q04DX003 (ip), vehicle: Klucel (hydroxypropylcellulose) (HPC)
[6] = dose: 200.0 mg/kg/injection, schedule: Q01DX001 (ip), vehicle: carboxymethylcellulose (CMC)
[7] = dose: 200.0 mg/kg/injection, schedule: Q04DX003 (ip), vehicle: Klucel (hydroxypropylcellulose) (HPC)
[8] = dose: 400.0 mg/kg/injection, schedule: Q04DX003 (ip), vehicle: Klucel (hydroxypropylcellulose) (HPC)
[9] = dose: 400.0 mg/kg/injection, schedule: Q01DX001 (ip), vehicle: carboxymethylcellulose (CMC)
[10] = dose: 100.0 mg/kg/injection, schedule: Q04DX003 (ip), vehicle: saline
[11] = dose: 200.0 mg/kg/injection, schedule: Q04DX003 (ip), vehicle: saline
[12] = dose: 400.0 mg/kg/injection, schedule: Q04DX003 (ip), vehicle: saline
[13] = dose: 400.0 mg/kg/injection, schedule: Q01DX001 (ip), vehicle: saline

C(CC1CO1)C1CO1 (stereo not drawn) was tested, and the T/C (dose: 7.0 mg/kg/injection, schedule: Q01DX009 (ip), vehicle: acetone) was 197 % of control, the T/C (dose: 9.0 mg/kg/injection, schedule: Q01DX Z (ip), vehicle: methylcellulose (MC)) was 118 % of control and the T/C (dose: 9.2 mg/kg/injection, schedule: Q01DX009 (ip), vehicle: saline) was 102 % of control and 115 % of control. For the same compound, the T/C (dose: 10.6 mg/kg/injection, schedule: Q01DX001 (ip), vehicle: acetone) was 102 % of control, the T/C (dose: 10.6 mg/kg/injection, schedule: Q01DX009 (ip), vehicle: acetone) was 115 % of control and the T/C (dose: 10.6 mg/kg/injection, schedule: Q04DX003 (ip), vehicle: acetone) was 112 % of control. For the same compound, the T/C (dose: 10.6 mg/kg/injection, schedule: Q08DX002 (ip), vehicle: acetone) was 102 % of control, the T/C (dose: 14.0 mg/kg/injection, schedule: Q01DX009 (ip), vehicle: acetone) was 152 % of control and the T/C (dose: 14.0 mg/kg/injection, schedule: Q01DX009 (ip), vehicle: saline) was 102 % of control and 105 % of control. The T/C (dose: 16.0 mg/kg/injection, schedule: Q01DX009 (ip), vehicle: acetone) was 115 % of control, the T/C (dose: 16.0 mg/kg/injection, schedule: Q04DX003 (ip), vehicle: acetone) was 115 % of control and the T/C (dose: 16.0 mg/kg/injection, schedule: Q08DX002 (ip), vehicle: acetone) was 112 % of control. The T/C (dose: 18.0 mg/kg/injection, schedule: Q01DX Z (ip), vehicle: methylcellulose (MC)) was 122 % of control and 124 % of control, the T/C (dose: 18.8 mg/kg/injection, schedule: Q01DX009 (ip), vehicle: saline) was 107 % of control and the T/C (dose: 21.0 mg/kg/injection, schedule: Q01DX009 (ip), vehicle: saline) was 109 % of control and 116 % of control. The T/C (dose: 22.0 mg/kg/injection, schedule: Q01DX001 (ip), vehicle: saline) was 109 % of control, the T/C (dose: 24.0 mg/kg/injection, schedule: Q01DX001 (ip), vehicle: acetone) was 103 % of control and the T/C (dose: 24.0 mg/kg/injection, schedule: Q04DX003 (ip), vehicle: acetone) was 124 % of control. The T/C (dose: 24.0 mg/kg/injection, schedule: Q08DX002 (ip), vehicle: acetone) was 105 % of control, the T/C (dose: 27.0 mg/kg/injection, schedule: Q01DX Z (ip), vehicle: methylcellulose (MC)) was 110 % of control and 116 % of control and the T/C (dose: 33.0 mg/kg/injection, schedule: Q01DX001 (ip), vehicle: saline) was 107 % of control. The T/C (dose: 36.0 mg/kg/injection, schedule: Q01DX001 (ip), vehicle: acetone) was 110 % of control, the T/C (dose: 36.0 mg/kg/injection, schedule: Q04DX003 (ip), vehicle: acetone) was 124 % of control and the T/C (dose: 36.0 mg/kg/injection, schedule: Q08DX002 (ip), vehicle: acetone) was 117 % of control. For the same compound, the T/C (dose: 37.5 mg/kg/injection, schedule: Q01DX009 (ip), vehicle: saline) was 150 % of control, the T/C (dose: 37.5 mg/kg/injection, schedule: Q04DX003 (ip), vehicle: saline sonified) was 113 % of control and the T/C (dose: 40.0 mg/kg/injection, schedule: Q01DX Z (ip), vehicle: methylcellulose (MC)) was 108 % of control and 116 % of control. For the same compound, the T/C (dose: 50.0 mg/kg/injection, schedule: Q01DX001 (ip), vehicle: saline) was 117 % of control, the T/C (dose: 54.0 mg/kg/injection, schedule: Q01DX001 (ip), vehicle: acetone) was 121 % of control and the T/C (dose: 54.0 mg/kg/injection, schedule: Q08DX002 (ip), vehicle: acetone) was 113 % of control. For the same compound, the T/C (dose: 60.0 mg/kg/injection, schedule: Q01DX Z (ip), vehicle: methylcellulose (MC)) was 86 % of control, the T/C (dose: 66.0 mg/kg/injection, schedule: Q01DX009 (ip), vehicle: acetone) was 168 % of control and the T/C (dose: 66.0 mg/kg/injection, schedule: Q04DX003 (ip), vehicle: saline) was 117 % of control. The T/C (dose: 75.0 mg/kg/injection, schedule: Q01DX009 (ip), vehicle: saline) was 175 % of control, the T/C (dose: 75.0 mg/kg/injection, schedule: Q04DX003 (ip), vehicle: saline sonified) was 119 % of control and the T/C (dose: 81.0 mg/kg/injection, schedule: Q01DX001 (ip), vehicle: acetone) was 118 % of control. The T/C (dose: 81.0 mg/kg/injection, schedule: Q04DX003 (ip), vehicle: acetone) was 154 % of control, the T/C (dose: 81.0 mg/kg/injection, schedule: Q08DX002 (ip), vehicle: acetone) was 123 % of control and the T/C [1] was 118 % of control. For the same compound, the T/C (dose: 100.0 mg/kg/injection, schedule: Q01DX009 (ip), vehicle: acetone) was 224 % of control, the T/C [2] was 161 % of control and the T/C (dose: 150.0 mg/kg/injection, schedule: Q04DX003 (ip), vehicle: saline) was 101 % of control. For the same compound, the T/C [3] was 121 % of control.

O=C1C=CC(=O)N1c1ccc2c(c1)Cc1ccccc1-2 was tested, and the T/C (dose: 50.0 mg/kg/injection, schedule: Q04DX003 (ip), vehicle: saline with Tween-80) was 98 % of control, the T/C (dose: 100.0 mg/kg/injection, schedule: Q04DX003 (ip), vehicle: saline with Tween-80) was 108 % of control and 115 % of control and the T/C (dose: 200.0 mg/kg/injection, schedule: Q04DX003 (ip), vehicle: saline with Tween-80) was 87 % of control.

For CCCC[P+](CCCC)(CCCC)Cc1ccc([N+](=O)[O-])cc1, the T/C (dose: 12.5 mg/kg/injection, schedule: Q01DX001 (ip), vehicle: Klucel (hydroxypropylcellulose) (HPC)) was 97 % of control, the T/C (dose: 12.5 mg/kg/injection, schedule: Q04DX002 (ip), vehicle: Klucel (hydroxypropylcellulose) (HPC)) was 106 % of control and the T/C (dose: 25.0 mg/kg/injection, schedule: Q01DX001 (ip), vehicle: Klucel (hydroxypropylcellulose) (HPC)) was 101 % of control. The T/C (dose: 25.0 mg/kg/injection, schedule: Q01DX009 (ip), vehicle: Klucel (hydroxypropylcellulose) (HPC)) was 99 % of control, the T/C (dose: 25.0 mg/kg/injection, schedule: Q04DX002 (ip), vehicle: Klucel (hydroxypropylcellulose) (HPC)) was 106 % of control and the T/C (dose: 50.0 mg/kg/injection, schedule: Q01DX001 (ip), vehicle: Klucel (hydroxypropylcellulose) (HPC)) was 101 % of control. The T/C (dose: 50.0 mg/kg/injection, schedule: Q04DX002 (ip), vehicle: Klucel (hydroxypropylcellulose) (HPC)) was 87 % of control.

For c1ccc(C2NC2c2ccccc2)cc1 (stereo not drawn), the T/C (dose: 50.0 mg/kg/injection, schedule: Q01DX001 (ip), vehicle: carboxymethylcellulose (CMC)) was 112 % of control, the T/C [4] was 97 % of control and the T/C [5] was 103 % of control. For the same compound, the T/C [6] was 97 % of control, the T/C [7] was 95 % of control and the T/C [8] was 91 % of control.

With COc1ccc(Br)cc1/C=C\C=O the T/C [4] was 87 % of control, the T/C [6] was 105 % of control and the T/C [9] was 100 % of control.

In the case of COC(=O)C1(Br)CCC1(Br)C(=O)OC (stereo not drawn), the T/C (dose: 100.0 mg/kg/injection, schedule: Q01DX009 (ip), vehicle: saline) was 100 % of control, the T/C [10] was 93 % of control and the T/C (dose: 200.0 mg/kg/injection, schedule: Q01DX009 (ip), vehicle: saline) was 100 % of control. The T/C [11] was 100 % of control, the T/C (dose: 400.0 mg/kg/injection, schedule: Q01DX009 (ip), vehicle: saline) was 98 % of control and the T/C [12] was 102 % of control.

In the case of COC(=O)c1cscc1C=O, the T/C [1] was 100 % of control, the T/C [2] was 102 % of control and the T/C [10] was 100 % of control. The T/C [3] was 104 % of control, the T/C (dose: 200.0 mg/kg/injection, schedule: Q04DX003 (ip), vehicle: acetone) was 95 % of control and the T/C [11] was 94 % of control. For the same compound, the T/C [13] was 93 % of control, the T/C (dose: 400.0 mg/kg/injection, schedule: Q04DX003 (ip), vehicle: acetone) was 93 % of control and the T/C [12] was 93 % of control.

In the case of O=C(O)CCC1CC1C(=O)c1ccccc1 (stereo not drawn), the T/C (dose: 50.0 mg/kg/injection, schedule: Q04DX003 (ip), vehicle: Klucel (hydroxypropylcellulose) (HPC)) was 102 % of control, the T/C [5] was 100 % of control and the T/C [7] was 103 % of control. For the same compound, the T/C [8] was 103 % of control.

ClCC1COC(Cc2ccccc2)O1 (stereo not drawn) was tested, and the T/C (dose: 222.0 mg/kg/injection, schedule: Q01DX Z (ip), vehicle: saline) was 97 % of control, the T/C (dose: 333.0 mg/kg/injection, schedule: Q01DX Z (ip), vehicle: saline) was 97 % of control and the T/C (dose: 500.0 mg/kg/injection, schedule: Q01DX Z (ip), vehicle: saline) was 103 % of control.

With COC(=O)C(C)CSP(=S)(Oc1ccccc1)Oc1ccccc1 (stereo not drawn) the T/C (dose: 100.0 mg/kg/injection, schedule: Q04DX002 (ip), vehicle: saline with Tween-80) was 105 % of control, the T/C (dose: 200.0 mg/kg/injection, schedule: Q04DX002 (ip), vehicle: saline with Tween-80) was 105 % of control and the T/C (dose: 400.0 mg/kg/injection, schedule: Q04DX002 (ip), vehicle: saline with Tween-80) was 102 % of control.

With Oc1ccc2ccccc2c1C=NCC1CCC(CN=Cc2c(O)ccc3ccccc23)CC1 (stereo not drawn) the T/C [1] was 91 % of control, the T/C [3] was 95 % of control and the T/C [13] was 88 % of control.

For COc1ccc(C2C(=O)NN=C2C)cc1 (stereo not drawn), the T/C [4] was 96 % of control, the T/C [6] was 96 % of control and the T/C [9] was 102 % of control.
